Calls of active or inactive are those of the source.
Key:
cells [1] = type: functional, cell-based
cells [2] = type: functional, cell-based; remark: listed apart in the source
[3] = target: T1, Mannose-6-phosphate isomerase (Homo sapiens, UniProt P34949); experiment: MPI inhibition at elevated mannose 6-phosphate – biochemical, fluorescence intensity, high mannose 6-phosphate, primary screen (AID 1220)
T1 sequence (P34949 whole entry): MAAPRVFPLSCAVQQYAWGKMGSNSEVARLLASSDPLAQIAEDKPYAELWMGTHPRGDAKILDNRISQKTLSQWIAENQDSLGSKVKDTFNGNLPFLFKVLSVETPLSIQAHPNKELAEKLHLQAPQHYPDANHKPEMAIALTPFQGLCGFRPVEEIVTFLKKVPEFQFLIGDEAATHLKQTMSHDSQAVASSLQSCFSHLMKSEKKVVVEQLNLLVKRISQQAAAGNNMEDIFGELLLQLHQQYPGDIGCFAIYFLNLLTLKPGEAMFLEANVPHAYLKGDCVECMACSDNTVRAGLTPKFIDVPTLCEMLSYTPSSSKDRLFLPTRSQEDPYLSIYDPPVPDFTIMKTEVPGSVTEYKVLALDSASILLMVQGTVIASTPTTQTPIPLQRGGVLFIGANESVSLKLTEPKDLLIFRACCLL

[4] = Trypanosoma cruzi growth suppression in host cells – NIH3T3 host cells, beta-gal luminescence, confirmation (AID 2044); type: functional, cell-based;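 note: intracellular parasites grown in NIH/3T3 mouse fibroblasts as host cells; luminescent beta-galactosidase reporter signal from transgenic T. cruzi replicating inside host cells; inhibitors lower the luminescence signal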
[5] = target: T2, DNA repair protein RAD52 homolog (Homo sapiens, UniProt P43351); type: functional, biochemical
T2 sequence (P43351 whole entry): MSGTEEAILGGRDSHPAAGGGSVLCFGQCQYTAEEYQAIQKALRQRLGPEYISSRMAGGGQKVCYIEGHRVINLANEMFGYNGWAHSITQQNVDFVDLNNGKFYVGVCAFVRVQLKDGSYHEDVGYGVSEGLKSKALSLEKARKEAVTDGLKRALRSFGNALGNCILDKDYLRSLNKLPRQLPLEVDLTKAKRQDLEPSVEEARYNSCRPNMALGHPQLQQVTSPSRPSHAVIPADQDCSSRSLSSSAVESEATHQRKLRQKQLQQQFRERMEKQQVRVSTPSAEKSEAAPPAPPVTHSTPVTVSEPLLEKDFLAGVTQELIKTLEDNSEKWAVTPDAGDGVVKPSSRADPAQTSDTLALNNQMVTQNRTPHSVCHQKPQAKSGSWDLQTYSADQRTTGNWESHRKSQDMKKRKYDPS

H4 = experiment: Luminescence Cell-Based Dose Response HTS to Identify Activators of 5'UTR Stem-Loop Driven Prion Protein mRNA Translation in H4 Neuroglioblastoma Cells. [Related pubchem assays: 1829 (Project Summary), 1814 (Primary HTS)]; type: functional; conditions: Homo sapiens
[6] = Luminescence Cell-Based Dose Confirmation HTS to Identify Activators of 5'UTR Stem-Loop Driven Alpha-Synuclein mRNA Translation in H4 Neuroglioblastoma Cells. [Related pubchem assays: 1829 (Project Summary), 1814 (Primary HTS)]; type: functional
[7] = NIH3T3 cell viability loss – ATP luminescence, mouse fibroblasts, counter-screen, dose response (AID 2010); type: functional, cell-based;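 note: cells exposed to compound for about 90 hours before reading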
[8] = Luminescence Cell-Based Dose Response HTS to Identify Activators of Luciferase Translation or Activity in H4 […] Cells. [Related pubchem assays: 1829 (Project Summary), 1814 (Primary HTS)]; type: functional
[9] = blockade of melanocortin 4 receptor signaling – cell-based, plate reader, cherry pick, counter-screen for LGR2 antagonist project, dose response (AID 743444); type: functional;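 note: transfected HEK 293 cells stimulated with alpha-MSH peptide; potency of inhibitors of the alpha-MSH evoked signal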
[10] = toxicity toward HepG2 liver cells – cell-based, plate reader, cherry-pick, antagonist series, cytotoxicity control, dose response (AID 743416); type: functional
[11] = blockers of bursicon-stimulated LGR2 cAMP reporter – cell-based, HEK293, CRE-luciferase reporter, cherry pick, set 2, dose response (AID 743343); type: functional;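 note: transfected cells were stimulated with diluted bursicon conditioned medium after compound addition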
[12] = target: T3, Replicative DNA helicase DnaB (Mycobacterium tuberculosis, UniProt P9WMR3); experiment: DnaB intein splicing inhibitors, dose response, biochemical, cell-free fluorescence (AID 449749); type: functional
T3 sequence (P9WMR3 whole entry): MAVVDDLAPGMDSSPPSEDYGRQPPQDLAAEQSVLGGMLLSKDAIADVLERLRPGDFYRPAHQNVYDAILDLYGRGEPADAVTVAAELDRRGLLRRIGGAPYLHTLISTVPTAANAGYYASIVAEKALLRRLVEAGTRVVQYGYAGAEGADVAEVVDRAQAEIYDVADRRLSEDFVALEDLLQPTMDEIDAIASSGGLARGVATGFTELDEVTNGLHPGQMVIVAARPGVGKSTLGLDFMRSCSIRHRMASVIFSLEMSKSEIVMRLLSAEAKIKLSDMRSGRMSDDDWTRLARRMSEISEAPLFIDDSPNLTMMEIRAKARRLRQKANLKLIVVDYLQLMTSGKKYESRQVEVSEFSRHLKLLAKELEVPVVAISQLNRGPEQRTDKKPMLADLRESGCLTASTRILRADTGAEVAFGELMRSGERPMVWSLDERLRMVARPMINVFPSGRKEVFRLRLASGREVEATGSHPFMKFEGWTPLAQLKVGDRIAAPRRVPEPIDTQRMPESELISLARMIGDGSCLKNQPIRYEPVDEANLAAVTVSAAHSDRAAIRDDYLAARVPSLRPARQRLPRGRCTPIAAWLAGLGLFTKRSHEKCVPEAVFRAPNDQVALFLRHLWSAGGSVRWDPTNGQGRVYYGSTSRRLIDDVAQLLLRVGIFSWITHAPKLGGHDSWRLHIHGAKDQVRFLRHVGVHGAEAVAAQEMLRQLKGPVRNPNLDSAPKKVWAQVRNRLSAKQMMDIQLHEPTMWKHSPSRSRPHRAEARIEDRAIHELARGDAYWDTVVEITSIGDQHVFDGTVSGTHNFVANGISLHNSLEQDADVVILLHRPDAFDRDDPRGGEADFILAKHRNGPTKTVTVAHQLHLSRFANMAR

Protein RecA = target: T4, Protein RecA (Mycobacterium tuberculosis, UniProt P9WHJ3); experiment: Fluorescence Cell-Free Homogeneous Dose Retest to Identify Inhibitors of RecA-Intein Splicing Activity. [Related pubchem assays (depositor defined):AID2097, AID2223, AID489010, AID492950]; type: functional
T4 sequence (P9WHJ3 whole entry): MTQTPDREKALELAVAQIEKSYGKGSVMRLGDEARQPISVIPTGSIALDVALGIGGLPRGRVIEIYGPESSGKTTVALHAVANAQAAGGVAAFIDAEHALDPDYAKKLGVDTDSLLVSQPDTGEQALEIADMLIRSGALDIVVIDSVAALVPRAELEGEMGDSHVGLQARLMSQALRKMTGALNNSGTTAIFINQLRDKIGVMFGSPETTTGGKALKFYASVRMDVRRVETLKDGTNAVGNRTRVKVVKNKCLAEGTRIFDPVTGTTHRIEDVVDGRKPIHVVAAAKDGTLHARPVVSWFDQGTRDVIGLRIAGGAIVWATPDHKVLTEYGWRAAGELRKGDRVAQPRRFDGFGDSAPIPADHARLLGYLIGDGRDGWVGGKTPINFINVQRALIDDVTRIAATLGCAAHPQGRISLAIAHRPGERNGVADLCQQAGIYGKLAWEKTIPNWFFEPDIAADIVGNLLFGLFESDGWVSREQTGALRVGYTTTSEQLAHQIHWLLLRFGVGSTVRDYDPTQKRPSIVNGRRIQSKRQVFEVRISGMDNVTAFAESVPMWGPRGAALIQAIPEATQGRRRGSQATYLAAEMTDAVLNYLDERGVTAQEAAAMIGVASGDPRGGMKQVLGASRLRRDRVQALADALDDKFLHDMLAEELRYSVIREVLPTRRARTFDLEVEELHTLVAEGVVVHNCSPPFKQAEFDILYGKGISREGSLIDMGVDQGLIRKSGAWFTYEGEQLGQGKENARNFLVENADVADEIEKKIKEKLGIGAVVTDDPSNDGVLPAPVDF

cells [13] = type: functional, cell-based; remark: listed apart in the source
cells [14] = type: functional, cell-based; remark: listed apart in the source
[15] = A549 cell cytotoxicity, dose response, cytotoxicity control, plate reader, cherry-pick, antagonist series (AID 743412); type: functional, cell-based

## Cc1nc(NCCc2ccccc2)c(C#N)c(C)c1[N+](=O)[O-]
Cells [1]
  EC50: > 350 µM (not active)
Cells [2]
  EC50: > 350 µM (not active)

## CCOc1cc(N2CCOCC2)c(OCC)cc1N=C(S)NCCCOC
[3]
  IC50: > 50 µM (not active)

## COc1cccc(-c2nc(N3CCN(C)CC3)c3ccccc3n2)c1O
[4]
  EC50: < 0.1 µM (active)
[5]
  AC50: 3.52 µM (active)
H4
  EC50: > 120 µM (not active)
[6]
  EC50: > 120 µM (not active)
[7]
  EC50: > 60 µM (not active)
[8]
  EC50: 12.9 µM (active)

## CCOC(=O)c1sc(NC(=O)Nc2ccccc2F)nc1C
[9]
  AC50: 4.34 µM (active)
[10]
  AC50: > 52 µM (inactive)
[11]
  AC50: 2.48 µM (active)

## CCCc1n[nH]c2c1C(c1ccoc1)C(C#N)=C(N)O2 (configuration not stated)
[12]
  AC50: 4.51 µM (active)
Cells [1]
  EC50: > 350 µM (not active)
Protein RecA
  EC50: 2.39 µM (active)
Cells [2]
  EC50: > 350 µM (not active)

## CCC(c1nnnn1Cc1ccco1)N(CCc1ccccc1)Cc1cc2cc(C)ccc2nc1O (configuration not stated)
Cells [13]
  EC50: > 29.9 µM (inactive)
Cells [14]
  IC50: > 29.9 µM (inactive)

## C=CCc1c(C)nc2cc(-c3ccc(C)cc3)nn2c1O
[15]
  AC50: 13.6 µM (active)
[9]
  AC50: 26.2 µM (active)
[10]
  AC50: 22.6 µM (active)
[11]
  AC50: 26.4 µM (active)
